Data set [1] deals with E. coli. As to conditions: Konno et al., Peptides 2006; cited from earlier work.
Data set [2] relates to P. aeruginosa. As to conditions: Konno et al., Peptides 2006; cited from earlier work.
Data set [3] has as its system HeLa TLR4/IL-8 Renilla Luciferase Reporter cell line. Description: Anti-inflammatory activity (LPS stimulation, luciferase reporter). The format is cell-based. Conditions: 10 ng/mL LPS from P. aeruginosa; 6 h incubation; read-out: IC50 (inhibition of LPS effect). How it is done:
Anti-inflammatory activity of the peptides was determined using eLUCidate™ HeLa TLR4/IL-8 Renilla Luciferase Reporter cell line (obtained from ASMBIO). eLUCidate™ HeLa cells were cultivated according to manufacturer instructions. eLUCidate™ HeLa cells were seeded in 96 wells plates at an initial 50,000 cells/well. The next day, media from wells was empty and cells were exposed to LPS from P. aeruginosa (from Sigma Aldrich) diluted in culture media at a final concentration of 10 ng/ml in the presence of increasing concentrations of peptides. Polymyxin B (PMB, from Sigma Aldrich) was used as positive control. After 6 h incubation at 37°C in an incubator containing 5% CO2, wells were empty and cells were lysed in 70 µl of PBS containing 1% Triton X100 for 15 min on ice. 50 µl of cell lysats were then transferred to white 96 wells plates containing 50 µl of Renilla Luciferase substrate (Genofax A from Yelen, Marseille France). Luminescence intensities were measured using microplate reader (Synergy Mx, Biotek). The luminescence values were normalized by the controls (buffer treated cells) and expressed as percent of LPS stimulation. […]
A general note: In a reporter assay the amount or activity of a reporter protein is the signal.

Data set [4] concerns human erythrocytes. Description: Hemolytic activity assay. The data set is classed as cell-based. How it is done:
The hemolytic activity of each peptide was determined by the leakage of hemoglobin from human erythrocytes (obtained from Divbioscience, NL) as previously described (Oyama et al., 2017 Biofilms Microbiomes, Dec 1;3:33).
Briefly, human erythrocytes were washed 3 times with phosphate buffer saline (PBS) and concentrated using centrifugation at 800 g for 5 min. Human erythrocytes were then resuspended in PBS at a final concentration of 8 %. 100 µl of human erythrocytes were then added per well of sterile 96 well microplate already containing 15 µl of serially diluted antimicrobials (1:2 in distilled water). After 1 h at 37°C, the microplate was centrifuged at 800 g for 5 min. 100 µl were then carefully collected and transferred to a new 96 well microplate and OD was measured at 405 nm. Hemolysis caused by peptides was expressed as percentage of hemolysis; Triton-X100 at 0.1 % (v:v) was used as positive control and gave 100 % hemolysis. Hemolysis rate was determined as below: Hemolysis rate (%) = (A−A2)/(A1−A2) × 100% [formula] where A is the absorbance of indicator mixtures with different factors, A1 and A2 are the positive control, and the negative control, respectively.

Data set [5] concerns S. aureus.
Data set [6] relates to E. coli.
For data set [7], the system named is B. subtilis.
The test system of data set [8] is A.baumani.
In data set [9] the test system is Candida albicans.
For data set [10], the system named is P. aeruginosa.
In data set [11] the test system is Gram-positive and Gram-negative bacteria.

Where “and” joins values, the source holds several entries; their conditions need not be identical. Equal entries are not always repeated. Ends that are not written are not given here.

On to eumenitin, for which the “effective concentration against E. coli” value in data set [1] is reported as 6 µM. The “effective concentration against P. aeruginosa” value in data set [2] is recorded as 30 µM.

A word on the IC50: it is the point on the concentration scale where inhibition reaches its midpoint. With Polymyxin B [PMB], the IC50 in data set [3] is 57 nM and 57.6 nM.

For “ILKAIKKLLKN-NH2 [LTX-gallicune-1 (I1N11)]”, the hemolytic activity entry in data set [4] (at 1mM) is recorded as “not hemolytic”. In addition, the “hemotoxicity: no toxicity towards red blood cells up to” value in data set [4] (highest concentration tested) is more than 10 mM. Moreover, in data set [4] (human erythrocytes, Fig 3), the “times less toxic (hemotoxic) than Gallicus-CP” value is recorded as 1000 times. Further, in data set [5], the “MIC against S. aureus” value is on record as not below 100 µM. Further, in data set [6], the “MIC (µM) E. coli” value was found to be 6.25 µM and the “MIC against E. coli” value is given as more than 50 µM. For the same substance, the “MIC against B. subtilis” value in [7] turned out to be 6.25 µM. Also, the “MIC (µM) A.baumani” value in [8] was found to be 100 µM. The “MIC against Candida albicans” value in [9] amounted to 50 µM.

Regarding ILSAILGLLKNL-NH2 [Gallicus-CP(I1L12)], the “50% MHC (concentration inducing 50% hemolysis of human erythrocytes)” value in data set [4] worked out at 10 µM. In data set [10], the “MIC (µM) P. aeruginosa” value was determined as 100 µM. Further, the “minimal inhibitory concentration (MIC)” value in [11] lay within 1.56 to 100 µM.

Source of the values: EP3838286B1, “ANTIMICROBIAL PEPTIDE FROM POLISTES GALLICUS VENOM AND ITS ANALOGS” (Latoxan, priority 2019, dated 2021).
